Where “and” joins values, the source holds several entries; their conditions need not be identical. Identical values can stand only once.
Experiments:
[1] = test system: odorranalectin-mediated erythrocytes hemagglutination; test: Hemagglutination-inhibition test; assay type: cell-based, rabbit; conditions: for MIC, minimum concentration to inhibit odorranalectin-mediated erythrocytes hemagglutination: inhibition of four hemagglutination doses of odorranalectin
Procedure: Intact, pronase-treated, trypsin-treated, and formaldehyde-treated rabbit erythrocytes were prepared. Assays were carried out in U-well microtiter plates (96 wells) as described previously [21]–[23]. The details are provided in the supplementary materials (Materials and Methods S1).
Inhibition was expressed as the minimum concentration of each sugar or glycoprotein required for inhibition of hemagglutination of titer 4 of the lectin.

[2] = biological target: immobilized odorranalectin (Odorrana grahami, UniProt B3TFE9); test: SPR, analytes on immobilized odorranalectin; assay type: binding
Procedure: Real time detection of odorranalectin and its mutants binding to glycoproteins and L-fucose was recorded by using a Biacore 3000 [21]–[24]. The details are provided in the supplementary materials (Materials and Methods S1).
SPR Analysis. Real time detection of odorranalectin and its mutants binding to glycoproteins and L-fucose was recorded by using a Biacore 3000 [21-24]. Odorranalectin was immobilized covalently via their primary amines to carboxyl groups within a dextran layer on the sensor chip CM-5 according to the manufacturer’s specifications. After chip activation with 0.4 M 1-ethyl-3- (3-dimethylaminopropyl) carbodiimide hydrochloride and 10 mM N-hydroxysuccinimide, odorranalectin or its mutants (in 10 mM sodium acetate buffer, pH 4.0) at a concentration of 100 μg/ml was passed through the flow cells at a rate of 5 μl/min. After immobilization, the chip was capped by exposure to 1 M ethanolamine (pH 8.5).
All analyses were performed at a flow rate of 30 μl/min. Before loading of analytes, the chip was equilibrated with 10 mM HEPES-buffered saline containing 3 mM EDTA and 0.005% surfactant P-20, pH 7.4 (HBS-EP). Each analyte at various concentrations in the same buffer was injected over the immobilized ligand for 4 min. After injection of the analyte, HBS-EP was introduced onto the sensor surface to start dissociation, and dissociation data were collected for 5 min. The chip was regenerated by injection of 5μl of 10 mM HCl or NaOH, followed by HBS-EP.
Association and dissociation rate constants (ka and kd) were calculated by using BIA evaluation 4.0 software (Biacore AB, Sweden). The affinity constant (KD) was calculated from the ka and kd. For the calculation of rate constants, samples were appropriately diluted in HBS-EP at various concentrations.

[3] = SPR Biacore 3000, CM-5 chip, HBS-EP pH 7.4, 1:1 binding model

Compound | MIC, minimum concentration to inhibit odorranalectin-mediated erythrocytes hemagglutination ([1]; sugars) | other results
OC[C@H]1O[C@@H](O[C@H]2[C@H](O)[C@@H](O)[C@H](O)O[C@@H]2CO)[C@H](O)[C@@H](O)[C@@H]1O [D(+)-cellobiose] | > 200 mM | –
O=[N+]([O-])c1ccccc1O[C@@H]1O[C@H](CO)[C@H](O)[C@H](O)[C@H]1O [2-nitrophenyl-β-D-galactopyranoside] | > 200 mM | –
OC[C@H]1OC(O)[C@H](O)[C@@H](O)[C@@H]1O (stereo partly drawn) [D-glucose] | > 200 mM | –
OC1OC[C@@H](O)[C@@H](O)[C@@H]1O (stereo partly drawn) [D(+)-arabinose] | > 200 mM | –
OC[C@H]1O[C@H](O[C@H]2O[C@H](CO)[C@@H](O)[C@H](O)[C@H]2O)[C@H](O)[C@@H](O)[C@@H]1O [D-trehalose] | > 200 mM | –
C[C@H](O)[C@@H](O)[C@@H](O)[C@H](O)C=O [L-fucose, reference compound] | – | minimal effective concentration ([1]; Oryctolagus cuniculus, Erythrocyte, read-out: MIC, minimum concentration to inhibit odorranalectin-mediated erythrocytes hemagglutination): 12500 µM; Kd ([2]; SPR Biacore 3000, CM-5 chip, HBS-EP pH 7.4, calculated from ka and kd): 54.7 µM; kon ([2]; pH 7.4, read-out: ka): 159 M⁻¹ s⁻¹; koff ([2]; pH 7.4, read-out: kd): 0.00867 s⁻¹
OC[C@H]1OC(O)[C@H](O)[C@@H](O)[C@H]1O (stereo partly drawn) [D(+)-galactose] | > 200 mM | –
CC(=O)N[C@@H]1C(O)O[C@H](CO)[C@@H](O)[C@@H]1O (stereo partly drawn) [N-acetyl-D-mannosamine] | > 200 mM | –
D(+)-maltose monohydrate | > 200 mM | –
OC1COC(O)C(O)C1O (stereo not drawn) [D(+)-xylose] | > 200 mM | –
O=C(CO)[C@H](O)[C@@H](O)[C@H](O)CO [D-sorbose] | > 200 mM | –
O=C(CO)N[C@H]1[C@H]([C@H](O)[C@H](O)CO)OC(O)(C(=O)O)C[C@@H]1O (stereo partly shown) [N-glycolylneuraminc acid] | > 200 mM | –
Transferrin: glycoprotein used as analyte | – | Inhibition of the hemagglutinating activity of odorranalectin by glycoproteins (in words) [1]: All the glycoproteins except transferrin could inhibit; Binding to immobilized odorranalectin (in words) ([2]; SPR): did not bind
heparin | > 200 mM | –
OC[C@H]1O[C@@H](Oc2c[nH]c3ccc(Br)c(Cl)c23)[C@H](O)[C@@H](O)[C@H]1O [5-bromo-4-chloro-3-indoxyl-β-D-galactopyranoside] | > 200 mM | –
CC(=O)N[C@@H]1[C@@H](O)[C@@H](O)[C@@H](CO)O[C@@H]1O [N-acetylgalactosamine] | > 200 mM | –
O.O.O.O.O.OC[C@H]1O[C@H](OC[C@H]2O[C@H](O[C@]3(CO)O[C@H](CO)[C@@H](O)[C@@H]3O)[C@H](O)[C@@H](O)[C@@H]2O)[C@H](O)[C@@H](O)[C@H]1O [D(+)-raffinose pentahydrate] | > 200 mM | –
CC(C)S[C@@H]1O[C@H](CO)[C@H](O)[C@H](O)[C@H]1O [isopropy-β-D-thiogalactoside] | > 200 mM | –
Fetuin: glycoprotein used as analyte and inhibitor | – | Inhibition of the hemagglutinating activity of odorranalectin by glycoproteins (in words) [1]: most effective inhibitor; MIC, minimum concentration to inhibit odorranalectin-mediated erythrocytes hemagglutination ([1]; glycoproteins): 15.63 µg/mL and 15.6 µg/mL; ka [2, 3]: 2890 M⁻¹ s⁻¹; kd [2, 3]: 0.00061 s⁻¹
C[C@@H]1O[C@@H](O)[C@H](O)[C@H](O)[C@H]1O.O [L(+)-rhamnose monohydrate] | > 200 mM | –
inulin | > 200 mM | –
O.OC[C@H]1O[C@@](CO)(O[C@H]2O[C@H](CO)[C@@H](O)[C@H](O)[C@H]2O)[C@@H](O[C@H]2O[C@H](CO)[C@@H](O)[C@H](O)[C@H]2O)[C@@H]1O [D(+)-melezitose monohydrate] | > 200 mM | –
O=C(O)[C@H]1OC(O)[C@H](O)[C@@H](O)[C@H]1O (stereo partly drawn) [D(+)-galacturonic acid] | > 200 mM | –
OC[C@@H](O)[C@H](O)[C@H](O)[C@@H](O)CO [dulcitol] | > 200 mM | –

Source: paper PMC2440032, “Odorranalectin Is a Small Peptide Lectin with Potential for Drug Delivery and Targeting” (PLoS ONE, 2008)
